Some test systems named below: MOLT-4 leukemia; EKVX NSCLC; HOP-92 NSCLC; LOX IMVI melanoma; UACC-257 melanoma; RPMI-8226 leukemia; BT-549 breast; HCT-15 colon; SF-539 CNS; MDA-N; HS 578T breast; UO-31 renal; NCI-H460 lung; SNB-19 CNS; CCRF-CEM leukemia.
Common to all, as to test: NCI anticancer screen, dose series, 48 h

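Where inhibition never reached the appropriate level, the endpoint shown equals the highest concentration tested. Otherwise, values were interpolated linearly from a five-concentration, 48-hour dose response in 96-well plates. At the TGI there is no net growth.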

On to `COc1ccc2c(c1OC)C(Br)CCC(Br)(Br)C2=O` (centres undefined), for which the TGI in the assay on MOLT-4 leukemia was 8.32 µM; with EKVX NSCLC, 29.4 µM; in the assay on HOP-92 NSCLC, 9.44 µM; in the assay with LOX IMVI melanoma it was 10.8 µM; with UACC-257 melanoma it was 27.7 µM; with RPMI-8226 leukemia, 26.1 µM. The TGI in the assay with BT-549 breast is 20.3 µM; with HCT-15 colon, 25.6 µM; in the assay with SF-539 CNS it was 11.7 µM; in the assay with MDA-N it was 14.2 µM; in the assay on HS 578T breast, 44.2 µM; in the assay with UO-31 renal it was 14 µM. For the same molecule, the values for the TGI with NCI-H460 lung and with SNB-19 CNS were 31 µM and 28.9 µM, respectively.
Regarding `CCOC(=O)c1nc2cc(F)c(F)cc2nc1NCc1cc(OC)c(OC)c(OC)c1`, the TGI in the assay on CCRF-CEM leukemia, in the assay on MOLT-4 leukemia, in the assay with EKVX NSCLC, in the assay on HOP-92 NSCLC, with LOX IMVI melanoma and with UACC-257 melanoma was > 100 µM in each case. Also, the TGI in the assay with BT-549 breast, in the assay on HCT-15 colon, in the assay on SF-539 CNS, in the assay with MDA-N, with HS 578T breast and in the assay with UO-31 renal was > 100 µM throughout. Also, the TGI with NCI-H460 lung and in the assay on SNB-19 CNS was > 100 µM each time.
On to `O=S(=O)(O)c1cc(S(=O)(=O)O)c2c(N=Nc3ccccc3)c(O)ccc2c1`, for which the TGI in the assay with CCRF-CEM leukemia, with MOLT-4 leukemia, in the assay with HOP-92 NSCLC, in the assay on LOX IMVI melanoma, with UACC-257 melanoma and in the assay on RPMI-8226 leukemia was > 100 µM in each case. The TGI in the assay with BT-549 breast, with HCT-15 colon, in the assay with MDA-N, in the assay with HS 578T breast, with UO-31 renal and in the assay on SNB-19 CNS was > 100 µM throughout.
`CC(C)C(=O)CC(Sc1ccc(N)cc1)c1ccccc1` (centres undefined): the TGI is 70.7 µM in the assay with CCRF-CEM leukemia; > 100 µM in the assay with MOLT-4 leukemia; 33.8 µM in the assay on LOX IMVI melanoma; > 100 µM with UACC-257 melanoma; 63.1 µM with RPMI-8226 leukemia; 65.6 µM with BT-549 breast. The TGI in the assay with HCT-15 colon is > 100 µM; with SF-539 CNS, 63.5 µM; in the assay on MDA-N, 35.5 µM; in the assay with HS 578T breast it was 67.6 µM; in the assay on UO-31 renal, > 100 µM; in the assay on NCI-H460 lung it was 74.9 µM. Further, in the assay on SNB-19 CNS, the TGI was > 100 µM.
In the case of `CC(=O)N1c2ccccc2C2=NN=C(N(C)C)SC21` (centres undefined), the TGI with CCRF-CEM leukemia is 5.31 µM; in the assay on MOLT-4 leukemia, > 100 µM; in the assay with EKVX NSCLC, 12.8 µM; in the assay with LOX IMVI melanoma, 14.1 µM; with UACC-257 melanoma, 12.7 µM; with RPMI-8226 leukemia, 81.3 µM. For the same molecule, the TGI in the assay with BT-549 breast stood at 24.2 µM; in the assay with HCT-15 colon, 15.6 µM; in the assay with SF-539 CNS, 18.3 µM; in the assay with MDA-N, 19.7 µM; in the assay on HS 578T breast it was 52.4 µM; in the assay with UO-31 renal, 9.89 µM. The TGI is 13.3 µM in the assay with NCI-H460 lung and 23.5 µM in the assay with SNB-19 CNS.
Turning to `COc1ccc(-c2cc(-c3ccccc3)c3c(n2)-c2ccccc2NC(=O)C3)cc1`, the TGI in the assay with EKVX NSCLC, in the assay with HOP-92 NSCLC, with LOX IMVI melanoma, in the assay with UACC-257 melanoma, in the assay on RPMI-8226 leukemia and in the assay on BT-549 breast was > 100 µM throughout. For the same molecule, the TGI in the assay with HCT-15 colon is > 100 µM; in the assay on SF-539 CNS it was > 100 µM; with MDA-N it was > 100 µM; in the assay on HS 578T breast, 30.5 µM; in the assay with UO-31 renal, > 100 µM; in the assay with NCI-H460 lung, > 100 µM. Further, the TGI in the assay on SNB-19 CNS is > 100 µM.
With `COc1ccccc1-c1n[nH]c(-c2ccccc2O)n1`, the TGI in the assay with CCRF-CEM leukemia, in the assay with MOLT-4 leukemia, in the assay on HOP-92 NSCLC, in the assay on LOX IMVI melanoma, with UACC-257 melanoma and with RPMI-8226 leukemia was > 100 µM throughout. In addition, the TGI in the assay on BT-549 breast, in the assay with HCT-15 colon, in the assay with SF-539 CNS, in the assay with MDA-N, in the assay on HS 578T breast and with UO-31 renal was > 100 µM throughout. Moreover, the TGI in the assay with NCI-H460 lung and in the assay with SNB-19 CNS was > 100 µM in each case.
`COC(=O)C1=C(O)C(C(=O)OC)[C@]2(O)[C@H](C(=O)OC)[C@H]1C[C@@H](c1ccc(Cl)cc1Cl)[C@H]2C(=O)OC` (some centres undefined): the TGI with MOLT-4 leukemia was 8.98 µM; in the assay with EKVX NSCLC, > 100 µM; in the assay with HOP-92 NSCLC, 23.8 µM; in the assay with LOX IMVI melanoma it was 18.7 µM; with UACC-257 melanoma, 28.7 µM; in the assay on RPMI-8226 leukemia, 7.74 µM. Further, the TGI was 66.6 µM in the assay with BT-549 breast; 27.6 µM in the assay with HCT-15 colon; 17.5 µM with SF-539 CNS; 11 µM with MDA-N; > 100 µM in the assay on HS 578T breast; 21.1 µM in the assay on UO-31 renal. Moreover, the figures for the TGI in the assay on NCI-H460 lung and with SNB-19 CNS were 23.2 µM and 24.3 µM, respectively.
Take `O=[N+]([O-])/C(C(Cl)=C(Cl)Cl)=C(\Nc1cccc2cccnc12)Sc1ccccc1`: the TGI in the assay on CCRF-CEM leukemia was > 100 µM; in the assay with MOLT-4 leukemia it was 37.4 µM; in the assay with EKVX NSCLC, > 100 µM; in the assay on UACC-257 melanoma, 55.7 µM; with RPMI-8226 leukemia, > 100 µM; with BT-549 breast, 48 µM. For the same molecule, the TGI with HCT-15 colon is 34.4 µM; with SF-539 CNS, 40.4 µM; with MDA-N, > 100 µM; in the assay on HS 578T breast, 38 µM; in the assay on UO-31 renal it was 49.7 µM; in the assay with NCI-H460 lung, > 100 µM. Further, the TGI in the assay with SNB-19 CNS was > 100 µM.
As to `c1ccc2c(c1)Sc1ccccc1N2CCCN1c2ccccc2Sc2ccccc21`, the TGI with MOLT-4 leukemia, in the assay with EKVX NSCLC, with HOP-92 NSCLC, with LOX IMVI melanoma, in the assay with UACC-257 melanoma and in the assay with BT-549 breast was > 100 µM throughout. In addition, the TGI with HCT-15 colon, in the assay with SF-539 CNS, in the assay with MDA-N, in the assay on HS 578T breast, in the assay with UO-31 renal and in the assay on NCI-H460 lung was > 100 µM each time. The TGI with SNB-19 CNS was > 100 µM.
